Patent US8759488B2, “High stability streptavidin mutant proteins” (Isis Innovation Limited, priority 2009, dated 2014)

What was measured:
[1] = cited from earlier work
[2] = Biotin-4-fluorescein (B-4-F) off-rate assay; format: binding
Experimental: The off rate of streptavidin or the streptavidin mutants for biotin can be easily measured using the Biotin-4-fluorescein (B-4-F) off-rate assay described in the Examples. In this assay streptavidin (or a mutant thereof) is incubated with 12 nM B-4-F for 30 minutes at 37° C., where the binding of B-4-F to streptavidin quenches fluorescence. Excess biotin (100 μM) is added and fluorescence is then measured every 10 minutes for 10-18 hours. The rate of recovery of fluorescence indicates B-4-F off-rate from the streptavidin. Thus, the quicker that the fluorescence is seen in the sample the higher is the off rate, as fluorescence only starts to increase once B-4-F has dissociated from streptavidin.
The amount of B-4-F recovered during an incubation with wildtype streptavidin is at least 9%, for example 10, 11 or 12%. The amount of B-4-F recovered after a 10 hour incubation with a mutant streptavidin of the present invention may be less than 9%, for example less than 8, 7, 6, 5, 4, 3, 2 or 1%. Particularly, the amount of B-4-F recovered may be 2-3%.
The off-rate of biotin-4-fluorescein from avidin, streptavidin or traptavidin was measured using a PHERAstar plate-reader with 480 nm excitation and 520 nm emission (BMG LABTECH). In this assay the binding of biotin-4-fluorescein to an excess of binding protein results in quenching of fluorescein emission (Kada et al., 1999, Biochim. Biophys. Acta, 1427, 33-43). As the biotin-4-fluorescein dissociates, the fluorescence recovers. The assay was performed in the presence of excess biotin so that sites left open by biotin-4-fluorescein dissociation are immediately re-filled by biotin. 1 μM protein in 10 μL PBS was added to 12 nM biotin-4-fluorescein (Invitrogen), 0.12 mg/mL BSA in 170 μL PBS and incubated for 1 hr at 37° C. 20 μL PBS or 20 μL 1 mM biotin in PBS was then added and fluorescence measurements immediately started at 37° C. Percentage dissociation was calculated as (signal with biotin−signal without biotin)/(signal without quenching−signal without biotin)×100.
Since biotin-4-fluorescein fluorescence is decreased at low pH, 100 nM streptavidin, S52G R53N streptavidin, S52G R53S streptavidin, or traptavidin was incubated with 12 nM biotin-4-fluorescein in 100 mM NaCl, 30 mM sodium citrate pH 5.0 for 3 hr at 25° C., before incubating at 37° C. and adding 100 μM biotin and incubating for various times. Samples were then placed on ice to block further dissociation, adjusted to pH 7.2 with 1M HEPES pH 8.3, and fluorescence intensity was immediately measured as above. p-values were calculated using two-tailed Student t-tests from the data at the final timepoint.

[3] = Thermostability of the tetramer structure (SDS-PAGE); format: physicochemical; settings: absence of biotin, heated 3 min
Description: Streptavidin naturally occurs in tetrameric form i.e. made up of four streptavidin subunits. Streptavidin tetramers will however dissociate into monomeric form at high temperatures. […] For example, thermostability can be measured in terms of the temperature at which 50% of streptavidin is in the tetrameric form and 50% is in the monomeric form i.e. the temperature at which there is 50% dissociation.
Thermostability can be easily determined by heating streptavidin or a mutant thereof to a particular temperature and then placing on ice. The amounts of subunits/tetramers present can be determined using SDS-PAGE and quantifying band intensities.
3 μM streptavidin or traptavidin in PBS was heated at the indicated temperature for 3 min in a Bio-Rad DNA Engine® Peltier Thermal Cycler and then immediately placed on ice (Bayer et al., 1996, Electrophoresis, 17, 1319-1324). Samples were mixed with 6×SDS-PAGE loading buffer and loaded onto a 18% polyacrylamide gel. The 100% monomer positive control was mixed with SDS loading buffer prior to heating at 95° C. for 3 min. Band intensities were quantified using a ChemiDoc XRS imager and QuantityOne 4.6 software (Bio-Rad).

[4] = Thermostability of biotin-conjugate binding (agarose gel); settings: for dissociation of biotinylated DNA at 70° C.: 3 min
Description: For example, thermostability for biotin or a biotin conjugate can be measured in terms of the temperature at which 50% of the biotin or biotin conjugate is bound by the streptavidin, i.e. the temperature at which there is 50% dissociation. […] Thermostability for biotin or a biotin conjugate can be easily determined by heating streptavidin or a mutant thereof with biotin or a biotin conjugate to a particular temperature and then placing on ice. The amounts of free versus bound biotin conjugate present can be determined using an agarose gel and quantifying the band intensities.
To determine the thermostability of bioin-conjugate binding, 5.0 μM streptavidin or traptavidin in PBS was incubated with 21 nM monobiotinylated DNA in 4 μL for 30 minutes at 25° C. The samples were made up to a total volume of 10 μL with a final concentration of 100 μM biotin, 20 mM Tris acetate, 1 mM DDT, 2 mM magnesium acetate and 20 mM potassium glutamate pH 7.5 and were incubated for 5 minutes at 25° C. Samples were then heated at the indicated temperature for 3 minutes using a Thermal Cycler and cooled to 10° C. An agarose gel of 1.5% was run at 6.0V/cm in TAE at 25° C. for 45 minutes and DNA stained with ethidium bromide was visualized using a ChemiDoc XRS imager and QuantityOne 4.6 software. The percentages were calculated as 100× the intensity of the band for free DNA divided by the summed intensities of the bands for free and bound DNA. The 439 bp biotinylated DNA was prepared by PCR using Taq polymerase employing the primers Fts1 and the internally biotinylated primer bioFts2 (Eurofins) from the plasmid pJEG41-N1.

[5] = test system: biotinylated DNA with FtsK50C; assay: FtsK displacement assay; parameters: species or system E. coli; settings: in the presence of ATP, 2 min, 25° C.
Experimental: The FtsK displacement assay was performed at 25° C. in 25 mM Tris pH 7.5, 10 mM MgCl2. 5.9 nM DNA fragment was incubated with 0.5 μM streptavidin or traptavidin for 15 min, followed by 100 μM biotin to block free biotin binding sites. 1 μM FtsK50C was added and allowed to bind to the DNA for 5 min. 2.5 mM ATP was added to start the reaction, which was stopped after 2 min with 0.1% SDS and 20 mM EDTA. Samples were incubated for 20 mM to allow FtsK50C denaturation, mixed with 10× gel loading buffer (250 mM Tris pH 7.5, 20 mM EDTA, 50% glycerol, 2.5% bromophenol blue) and loaded on a 1.5% agarose gel in 1×TBE (89 mM Tris, 89 mM boric acid, 2 mM EDTA, pH 8.3) at 10 V/cm for 2 hr at 25° C. Gels were stained with SYBR Green (Invitrogen) for 2 hr, washed in ddH2O for 30 mM, imaged using a Fuji FLA3000 scanner, and quantified using Image Gauge software (Fuji). p-values were calculated using a two-tailed Student t-test.

[6] = free biotin; cited from earlier work
[7] = depending on the conjugate; cited from earlier work
[8] = On-rate assay (biotin-4-fluorescein quenching); format: binding
Experimental: The on rate can be measured again using an adapted B-4-F assay as described above. […] The on rate can therefore be established by the decrease in the amount of fluorescence which occurs over the incubation time. The faster the rate of decrease in fluorescence, the higher the on rate.
The on-rate of biotin-4-fluorescein from streptavidin or traptavidin was measured in PBS on a PHERAstar plate-reader (BMG LABTECH). In this assay the binding of biotin-4-fluorescein to streptavidin/traptavidin results in quenching of the fluorescein emission (Kada et al., 1999). 20 μL 10 nM streptavidin or traptavidin was added to 180 μL 56 μM biotin-4-fluorescein and the fluorescein emission at measured every 6 s at 25° C. The concentration of free biotin-4-fluorescein was calculated as (signal with biotin−signal without biotin)/(signal without quenching−signal without biotin)×50 μM starting biotin-4-fluorescein. Linear regression using GraphPad Prism was applied to the plot of 1n free biotin-4-fluorescein against time, with the gradient equal to kon×[streptavidin or traptavidin].

[9] = test system: AP-IGF1R/BirA-ER expressing COST cells; assay: Cellular imaging with Alexa Fluor 555 conjugates; format: cell-based
Experimental: Streptavidin and […] labeled with Alexa Fluor 555 by adding 1/10 volume of 1 M NaHCO3 pH 8.3 and then a 10-fold molar excess of Alexa Fluor 555 succinimidyl ester (Invitrogen) (stock dissolved at 1 mg/mL in dry dimethylformamide) and incubating for 4 hr at room temperature. Free dye was separated using 1 mL packed volume Sephadex G-25 (Sigma) in a poly-prep column. Fractions containing labelled protein were pooled and dye was further removed by three rounds of dialysis in PBS. COST cells were grown in DMEM with 10% Fetal Calf Serum, 50 U/mL penicillin and 50 μg/mL streptomycin. Cells were transfected using Lipofectamine 2000 (Invitrogen) following manufacturer's instructions with 0.25 μg AP-IGF1R, 0.2 μg BirA-ER and 0.05 μg H2B-ECFP per well of a 48 well plate. Cells were incubated with 10 μM biotin overnight for optimum biotinylation by BirA-ER. On the next day, cells were washed 3× in PBS with 5 mM MgCl2 (PBS/Mg) and kept thereafter at 4° C. Cells were incubated for 15 min in PBS/Mg with 1% dialyzed BSA and 0.4 μM Alexa Fluor 555 conjugated […]. Cells were washed with PBS/Mg 3× before imaging live. Cells were imaged using a wide-field DeltaVision Core fluorescent microscope (AppliedPrecision) with a 40× oil-immersion lens. ECFP (436DF20 excitation, 480DF40 emission, Chroma 86002v1 dichroic), Alexa Fluor 555 (540D420 excitation, 600DF50 emission, Chroma 84100bs polychroic), and bright-field images were collected and analyzed using softWoRx 3.6.2 software. Typical exposure times were 0.1-1.0 s and fluorescence images were background-corrected. Different samples in the same experiment were prepared, imaged and analyzed under identical conditions.

[10] = format: binding
Experimental: AFM cantilevers (Veeco MLCT-AUHW) with a nominal spring constant of 0.01 N/m were used in all measurements and calibrated by the thermal fluctuation method (Hutter and Bechhoefer, 1993, Review of Scientific Instruments, 64, 1868-1873). Cantilevers were briefly washed in acetone and then UV irradiated for 15 minutes. Cantilevers were then briefly dipped in 0.1M NaHCO3 pH 9.0, air-dried, and coated in 0.5 mg/mL biotinamidocaproyl-Bovine Serum Albumin (biotin-BSA) (Sigma) overnight at 4° C. in a humidified chamber. Cantilevers were washed three times in PBS and then coated with 0.01-0.3 mg/mL streptavidin or […] for 15 mins at 25° C. […] dishes were coated with 0.1M NaHCO3 pH 9 and then 0.5 mg/mL non-recombinant streptavidin (from Streptomyces avidinii, Pierce) in 0.1M NaHCO3 pH 9 overnight in a humidified chamber at 4° C. Biotinylated agarose beads (Sigma) were aspirated onto the dish. Measurements were conducted at 25° C. with a custom built AFM (Rico and Moy, 2007, J. Mol. Recogniti., 20, 495-501). […] Single molecule rupture forces were determined by calculating the force in the retraction trace at the initial point of rupture, using Igor Pro 6.04 (Wavemetrics Inc.). […] The loading rate was determined as the slope of the force vs time plot before the rupturing of the single molecule bond and significance was evaluated with the Mann-Whitney test.

[11] = 37° C., pH 7.4, excess free biotin

O=C(O)CCCC[C@@H]1SC[C@@H]2NC(=O)N[C@@H]21 [biotin, cis-hexahydro-2-oxo H-thieno[3,4] imidazole-4-pentanoic acid]
pKa [1]: about 4

avidin: Avidin (Sigma), biotin binding protein used as comparator [reference compound]
biotin conjugate off-rate (biotin-4-fluorescein dissociation) [2, 11]: dissociated very much faster than streptavidin

streptavidin: wildtype streptavidin protein comprising four wildtype subunits; core streptavidin with C-terminal His6 used in the tests [reference compound]
biotin conjugate off-rate (biotin-4-fluorescein dissociation) [2, 11]: dissociated steadily
amount of B-4-F recovered ([2]; 10 hour incubation, 37° C., excess biotin): at least 9%
temperature at which there is 50% dissociation of tetramer into monomer [3]: ~75 °C
temperature at which there is 50% dissociation of tetramer into monomer ([3]; listed as wildtype streptavidin): 70-75 °C
temperature at which there is 50% dissociation of biotin or biotin conjugate [4]: 50-60 °C
dissociation of biotinylated DNA at 70° C. [4]: complete dissociation
dissociated from the DNA by FtsK50C translocation [5]: 33%
half life of free biotin [6]: approximately 6.6 hr
off rate of biotin [6]: 2.9e-05 s⁻¹
half life for conjugated biotin [7]: 6 to 100 h

traptavidin: S52G R53D mutant of core streptavidin with His6 tag, tetramer; subunit SEQ ID NO. 5
biotin conjugate off-rate (biotin-4-fluorescein dissociation) [2, 11]: dramatically reduced biotin conjugate off-rate
change at the initial time-point (dissociation) [2, 11]: ~2%
dissociation over the subsequent 12 hr [2, 11]: very little dissociation
off-rate at pH 5 of biotin-4-fluorescein ([2]; pH 5, 37° C.): significantly slower than streptavidin
on-rate reduction relative to streptavidin [8]: approximately 2 fold
temperature at which there is 50% dissociation of tetramer into monomer [3]: ~85 °C
dissociation of biotinylated DNA at 70° C. [4]: most ligand was still bound
binding to untransfected neighboring cells expressing only AP-IGF1R ([9]; Alexa Fluor 555 conjugate): no detectable binding
signal on AP-IGF1R/BirA-ER expressing cells ([9]; Alexa Fluor 555 conjugate): strong signal
specificity for cellular imaging ([9]; Alexa Fluor 555 conjugate): high specificity
staining compared with streptavidin ([9]; each conjugated to Alexa Fluor 555): comparable
binding to equivalently treated cells when pre-blocked with free biotin ([9]; pre-blocked with free biotin): minimal binding
mechanical stability to a biotinylated ligand [10]: significantly greater mechanical stability than streptavidin
dissociated from the DNA by FtsK50C translocation [5]: 11%
